In patent US3949075A, “Anti-microbial compounds of 2', 4' substituted anilides of substituted nitrosalicylic acid for quadruped animals” (Ferro Corporation, priority 1974, dated 1976):
Values after ≈ are worked out from the molar mass of the structure shown. Where two headings read alike, the source gives them in different places.

Columns and labels:
[1] = system: Trichophyton mentagrophytes; assay: Inhibition of fungus on Sabouraud agar; format: cell-based; conditions: 120 hours at 25°C., read-out: inhibitory concentration
Protocol: (§1) The following procedure for antibacterial evaluation was used. Test compounds were dissolved in a suitable solvent (typically dimethyl sulfoxide or acetone) and incorporated in a nutrient agar at various concentrations. The plates were then streaked with cultures of the appropriate bacteria. The inoculum contained about 8 × 10^8 organisms per milliliter. After incubation for 48 hours at 37°C., the plates were examined for evidence of growth of the microorganisms. The minimum concentration necessary for complete inhibition of growth was noted.
For testing against the fungus Trichophyton the same procedure was used, except that the test medium was Sabouraud agar, and the plates were cultured for 120 hours at 25°C. before evaluation for evidence of growth. The inoculum added to the culture media contained about 5 × 10^6 spores in a water suspension containing 0.1% peptone.

[2] = Tolerance / toxicity in sheep; format: in vivo; conditions: in vivo, Table 1, read-out: Tolerance, highest test dosage at which the sheep developed no toxic symptoms
Protocol: (§2) The results of tests on sheep in a manner described, supra, using compounds of the present invention are given in Table 1, Examples 5 through 13. The numbers in the column headed "Haemonchus (15 mg/kg)" refer to the percent of parasites destroyed or expelled when the indicated compound was introduced into the rumen of sheep at a dosage of 15 milligrams per kilogram of body weight. The values under "Tolerance (mg/kg)" refer to the highest test dosage in the milligrams of anthelmintic per kilogram of body weight at which the sheep developed no toxic symptoms. "Tol." is an abbreviation for "tolerated". The symbols R1 and R2 refer to those of Formula I in these and other following examples.
The importance of the 2',4' substitution on the anilide moiety of Formula I is illustrated by the case of the dichloro substitution as summarized in Table III. […] This has been mentioned briefly hereinabove. As used herein, "toxic" refers to death of sheep resulting from the use of the indicated compound at the indicated dosage.
(§3) The data of the tables were generated using procedures previously described. The compounds tested are disubstituted and, except for Example 50 which is dibromo, are dichloro. Where the position for the substituents is other than 2' and 4', it is indicated. Under the indicated microorganisms, the values given in this and the following tables, should be read as: percentage of microorganism killed/dose in milligrams per kilogram of body weight. Under "Tolerance", the term "Tol." means "tolerated", "Tox." means "toxic", and "Sym." means "symptoms of toxic reaction", all at the dosage value which follows. It will be appreciated that there is no sharp toxicity end point in determining toxicity to living sheep.

Fasciola hepatica = assay: Test for activity against liver flukes, Fasciola hepatica, in infected sheep; format: in vivo; conditions: Fasciola hepatica, sheep, Tables VIII-XI, read-out: Fasciola hepatica, percentage of microorganism killed
Protocol: (§4) Test for activity against liver flukes were conducted as follows:
(§5) Eggs of Fasciola hepatica were collected from the bile of donor sheep. The eggs were embryonated and snails were infected (the genus Lymnaea serves as intermediate host) to produce Metacercariae which are the infective forms for sheep. Each sheep was infected with 250 metacercariae intraruminally. When the infection became patent in ca. 80 days, egg counts were carried out to determine the degree of worm burden. The liver was processed to recover F. hepatica in the untreated and treated sheep.
as §3

[3] = system: liver flukes of the genus Fasciola; assay: Utility against liver flukes of the genus Fasciola in sheep (oral); format: in vivo; conditions: 15 mg/kg
Protocol: as §4, §5
The compounds of this invention also have utility against liver flukes.

Haemonchus contortus = assay: Percent of Haemonchus destroyed or expelled in infected sheep (egg count after treatment); format: in vivo, Haemonchus contortus (in sheep); conditions: sheep
Protocol: Two groups of sheep were used in the tests. One group was used as a non-medicated control, while the other group was treated with the compound under investigation. Helminth-free young lambs were infected with about 10,000 filariform larvae of Haemonchus contortus. In three weeks when the infection became apparent, egg counts were made to determine the density of the worm burden.
The egg count was carried out using the following modified Stoll method. Three grams of sheep feces were taken rectally from each animal and placed in a Stoll flask. To each flask, tap water was added to the top line. The fecal pellets were too hard to break down, the flasks were closed with rubber stoppers and kept in the refrigerator for several hours. The flasks were thoroughly shaken and a 1 ml. sample was drawn from the middle using a wide mouth pipette. This 1 ml. sample was transferred to an 8 ml. plastic tube, to which enough saturated sodium chloride solution was added to reach the rim. The tubes were then centrifuged for 10 minutes at 1500 r.p.m. Then sodium chloride solution was added with a medicine dropper forming a concave miniscus. A cover glass was carefully added and the tubes were kept in a refrigerator for ten to twenty minutes. During that period, the nematode ova flowed upward and adhered to the bottom of the cover glass slip. At the end of the 20-minute period, the cover slip was carefully detached from the miniscus and transferred to a microscopic slide. The ova were then counted under a microscope equipped with 10X ocular and 10X objective lens. Each ovum under the microscope represented 20 ova in the sample.
Animals with sufficiently high egg counts were taken out of the pool and housed in experimental pens. Since the salicylanilides of the present invention are water insoluble, the compounds were first ground using a mortar and pestle and then were placed in a carboxymethyl cellulose solution. The particles were further micronized ultrasonically. The compound was then administered to two or three animals by Oesophageal gavage. Control, untreated animals, received only the carboxymethyl cellulose solution in a similar manner. On the sixth and seventh day after treatment, fecal pellets were taken from the rectum of the control as well as the treated animals and egg counts were made.
as §2, §3

Phytophthora infestans = format: in vivo, Phytophthora infestans (on tomatoes)
Haemophilus gallinarum = assay: Agar plate minimum inhibitory concentration; format: cell-based; conditions: Avibacterium paragallinarum, nutrient agar, 48 hours at 37°C., complete inhibition
Protocol: as §1

Salmonella gallinarum = assay: Agar plate minimum inhibitory concentration; format: cell-based; conditions: Salmonella enterica, nutrient agar, 48 hours at 37°C., complete inhibition
Protocol: as §1

Salmonella choleresuis = assay: Agar plate minimum inhibitory concentration; format: cell-based; conditions: 48 h, read-out: Minimum Inhibitory Concentration
Protocol: as §1

Streptococcus foecalis = assay: Agar plate minimum inhibitory concentration; format: cell-based; conditions: 48 h, read-out: Minimum Inhibitory Concentration
Protocol: as §1

Staphylococcus aureaus = assay: Agar plate minimum inhibitory concentration; format: cell-based; conditions: 48 h, read-out: Minimum Inhibitory Concentration
Protocol: as §1

Escherichia coli = assay: Agar plate minimum inhibitory concentration; format: cell-based; conditions: nutrient agar, 48 hours at 37°C., complete inhibition
Protocol: as §1

Alternaria solani = assay: Reducing infestation on tomatoes, early blight; format: in vivo, Alternaria solani (on tomatoes)
[4] = Haemonchus contortus, Table V, read-out: Effectiveness at 15 mg/kg against Haemonchus
[5] = Haemonchus contortus, Tables VIII-XI, read-out: Haemonchus, percentage of microorganism killed

Cc1c([N+](=O)[O-])cc(C(C)(C)C)c(O)c1C(=O)Nc1ccc(Cl)cc1 [Example 7, 3-tert. butyl-4'-chloro-6-methyl-5-nitrosalicylanilide] gave an MIC [1] of 1 µg/mL (≈ 2.76 µM), an NOAEL [2] of 15 to 50 mg/kg and an inhibition in vivo at 2 mg/kg (Fasciola hepatica; 2 mg/kg) of 0%. The inhibition in vivo at 5 mg/kg (Fasciola hepatica) was 50%, the inhibition in vivo at 15 mg/kg (Fasciola hepatica) was 100% and the “effect against liver flukes” value [3] was “efficacious”. It also gave an inhibition in vivo at 2 mg/kg (Haemonchus contortus; Haemonchus contortus, 2 mg/kg, Tables VIII-XI, read-out: Haemonchus, percentage of microorganism killed) of 0%, an inhibition in vivo at 5 mg/kg (Haemonchus contortus; Haemonchus contortus, 5 mg/kg, Tables VIII-XI, read-out: Haemonchus, percentage of microorganism killed) of 65% and an inhibition in vivo at 15 mg/kg (Haemonchus contortus; [4]) of 81%. For the same compound, the inhibition in vivo at 15 mg/kg (Haemonchus contortus; [5]) was 81%, the “Haemonchus (2 mg/kg), percent of parasites destroyed or expelled” value (Haemonchus contortus; into rumen, 2 mg/kg, Table 1) was 0% and the “Haemonchus (5 mg/kg), percent of parasites destroyed or expelled” value (Haemonchus contortus; into rumen, 5 mg/kg, Table 1) was 65%. For the same compound, the “Haemonchus (15 mg/kg), percent of parasites destroyed or expelled” value (Haemonchus contortus; into rumen, Table 1) was 81%.

With Cc1c([N+](=O)[O-])cc(C(C)(C)C)c(O)c1C(=O)Nc1ccc(Br)cc1 [Example 8, 4'-bromo-3-tert. butyl-6-methyl-5-nitrosalicylanilide] the “reducing infestation on tomatoes, late blight” value (Phytophthora infestans) was “effective in reducing infestation”, the MIC (Haemophilus gallinarum) was 8 µg/mL (≈ 19.6 µM) and the MIC (Salmonella gallinarum) was 64 µg/mL (≈ 157 µM). The MIC (Salmonella choleresuis) was 64 µg/mL (≈ 157 µM), the MIC (Streptococcus foecalis) was 64 µg/mL (≈ 157 µM) and the MIC (Staphylococcus aureaus) was 1 µg/mL (≈ 2.46 µM). It also gave an MIC (Escherichia coli) of 64 µg/mL (≈ 157 µM), an inhibition in vivo at 5 mg/kg (Fasciola hepatica) of 0% and an inhibition in vivo at 15 mg/kg (Fasciola hepatica) of 100%. The inhibition in vivo at 15 mg/kg (Haemonchus contortus; [4]) was 61%, the inhibition in vivo at 15 mg/kg (Haemonchus contortus; [5]) was 61% and the “Haemonchus (15 mg/kg), percent of parasites destroyed or expelled” value (Haemonchus contortus; into rumen, Table 1) was 61%. The “reducing infestation on tomatoes, early blight” value (Alternaria solani) was “effective in reducing infestation”.
